Test results as given in PubChem BioAssay (NCI).
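Step 1: Grow cells in 96-well plates. Step 2: Expose to compound for 48 hours at 5 concentrations. Step 3: Interpolate endpoints linearly; if unreached, use highest concentration. TGI: total growth inhibition.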 *1 amine or outer side, *2 acyl side, *3 side chain or, on linkers, in order; H or OH if unused. Where a SMILES comes first, the peptide text is derived from it. Bridges are numbered along the chain shown (N, C = ends). Roman numbers before positions name the chains, in order. [ ]: non-standard residue; d: D form. Actinocin(9to1) = Cc1c2oc3c(C)ccc(C(=O)[*:1])c3nc-2c(C(=O)[*:2])c(N)c1=O; Hyp = O=C(O)[CH]1C[CH](O)CN1; NMeV = CN[CH](C(=O)O)C(C)C; Sar = CNCC(=O)O

How the values were obtained:
Experiment in all cases: growth of human tumour cells (NCI), 48 h
786-0 renal = tested on: 786-0 renal
A549 NSCLC = tested on: A549 NSCLC
EKVX NSCLC = tested on: EKVX NSCLC
HCC-2998 colon = tested on: HCC-2998 colon
MDA-MB-231 breast = tested on: MDA-MB-231 breast
NCI-H23 lung = tested on: NCI-H23 lung
OVCAR-3 ovarian = tested on: OVCAR-3 ovarian
OVCAR-4 ovarian = tested on: OVCAR-4 ovarian
OVCAR-8 ovarian = tested on: OVCAR-8 ovarian
SF-539 CNS = tested on: SF-539 CNS

SMILES	TGI (786-0 renal) [µM]	TGI (A549 NSCLC) [µM]	TGI (EKVX NSCLC) [µM]	TGI (HCC-2998 colon) [µM]	TGI (MDA-MB-231 breast) [µM]	TGI (NCI-H23 lung) [µM]	TGI (OVCAR-3 ovarian) [µM]	TGI (OVCAR-4 ovarian) [µM]	TGI (OVCAR-8 ovarian) [µM]	TGI (SF-539 CNS) [µM]
CCSc1nc(=S)n(-c2ccccc2)c(C)c1C(C)=O	> 100	> 100	> 100	> 100	> 100	> 100	> 100	> 100	> 100	> 100
O=C(O)c1c2c(cc3c1CC1(Cc4cc5c(cc4C1=O)CCC5)C3)CCC2 (stereo not given)	> 100	> 100	> 100	> 100	> 100	> 100	> 100	> 100	> 100	> 100
Cc1cc2c(c(S(=O)(=O)c3ccccc3[N+](=O)[O-])c1)NCCC2	> 100	> 100	> 100	> 100	> 100	> 100	> 100	> 100	> 100	> 100
Cc1c(C)c(C)c(-n2c(=O)n(C)c(=O)n2-c2cc(C(C)(C)C)cc(C(C)(C)C)c2O)c(C)c1C	22.4	17.3	22.8	24.6	17	24	19.3	21.4	22.7	24.3
Nc1ccc2ccc(N3CCNCC3)nc2n1	> 100	> 100	> 100	> 100	> 100	> 100	> 100	> 100	> 100	> 100
O[C@@H]1CCC[C@@H]2NC[C@@H](c3ccc4c(c3)OCO4)[C@H]12	> 100	> 100	> 100	> 100	> 100	> 100	> 100	> 100	> 100	> 100
COc1ccc(NC(C(N)=O)c2cc3cc(Br)ccc3nc2Cl)cc1 (stereo not given)	> 100	> 100	> 100	> 100	> 100	> 100	> 100	> 100	> 100	> 100
Nn1c(=O)[nH]c2ncn(Cc3ccccc3)c2c1=O	> 100	> 100	> 100	> 100	> 100	> 100	> 100	> 100	> 100	> 100
C/C=C(\C)C(=O)O[C@@H]1CC(C)(C)CC2C3=CCC4[C@]56CC[C@](O)(OC5)C(C)(C)C6CC[C@@]4(C)C3(C)CC[C@]21C(=O)O (stereo not given in full)	> 100	> 100	> 100	> 100	> 100	> 100	> 100	> 100	> 100	> 100
COC(=O)c1c2c(cc3c1CC1(Cc4cc5c(c(C(C)=O)c4C1)CCCC5)C3)CCCC2 (stereo not given)	> 100	> 100	> 100	> 100	> 100	> 100	> 100	> 100	> 100	> 100
CCCCCCCCCCCCCCCCCCNC(=S)/N=C/c1c(O)c2ccccc2[nH]c1=O	29.8	47.6	29.6	31.1	30.3	37.5	37.8	41	29.6	43.1
O=[N+]([O-])c1cc(F)ccc1S(=O)(=O)c1ccccc1	> 10	> 10	> 10	> 10	> 10	> 10	> 10	> 10	> 10	> 10
CC(C)(C)NC(=O)/C(=C\Sc1ccccc1)c1ccccc1	> 100	> 100	> 100	> 100	> 100	> 100	> 100	> 100	> 100	> 100
CC1(C)C2CCC1C(=O)[C@@]1(C=CC(=O)CC1)C2 (stereo not given in full)	> 100	> 100	> 100	> 100	> 100	> 100	> 100	> 100	> 100	> 100
Cc1c2oc3c(C)ccc(C(=O)NC4C(=O)NC(C(C)C)C(=O)N5CC(O)CC5C(=O)N(C)CC(=O)N(C)C(C(C)C)C(=O)OC4C)c3nc-2c(C(=O)NC2C(=O)NC(C(C)C)C(=O)N3CC(O)CC3C(=O)N(C)CC(=O)N(C)C(C(C)C)C(=O)OC2C)c(N)c1=O (stereo not given) (I: TV[Hyp][Sar][NMeV] / II: TV[Hyp][Sar][NMeV]; ester I:1-I:C, II:1-II:C; linker I:N-II:N via Actinocin(9to1); configuration not given here)	> 1	> 1	> 1	> 1	> 1	> 1	> 1	> 1	> 1	> 1
O=c1c2cnccc2cc2c3ccccc3ccn12	> 100	> 100	> 100	> 100	> 100	> 100	> 100	> 100	> 100	> 100
COC(=O)C(Cc1c[nH]c2ccccc12)NP(=O)(O)OCC1OC(n2cc(Br)c(=O)[nH]c2=O)CC1O (stereo not given)	> 100	> 100	> 100	> 100	> 100	> 100	> 100	> 100	> 100	> 100
COc1c(Br)cc2ccccc2c1-c1c(OC)c(Br)cc2ccccc12	> 100	> 100	> 100	> 100	> 100	> 100	> 100	> 100	> 100	> 100
CC(=O)C(C(C)=O)[C@@H]1OC(C)(C)O[C@@H]1[C@H]1COC(C)(C)O1	> 100	> 100	79.1	> 100	> 100	> 100	> 100	> 100	> 100	> 100
